US20210371459A1, “DIMERIC PEPTIDE INHIBITORS OF APOPTOSIS PROTEINS” (Hepagene Therapeutics (HK) Limited, priority 2017, published 2021)

What was measured:
Conditions in all cases: FP, probe AbuRPFK-5FAM, 60 min at 25° C.
XIAP-BIR3 = target: T1, XIAP-BIR3 (Homo sapiens, UniProt P98170); test: XIAP-BIR3 fluorescence polarization binding assay
T1 construct: purchased Reaction Biology APT-11-374
Excerpt: (§1) IAPs are one main cause of cancer development and may result from overexpression of anti-apoptotic proteins. This protocol establishes three binding assays for XIAP Bir3 domain, cIAP1 and cIAP2 using FP (Fluorescence polarization) technology. The fluorescence probe used is a synthetic peptide conjugated to 5-carboxyfluorescein (AbuRPFK-5FAM). The fluorescence polarization value (mP) was detected by Envision, which was used to reflect the binding degree of protein and fluorescent marker. Reagents and equipment used in the assay are listed below, followed by the protocol.
(§2) • a) Prepare 100 times of the final cpd concentration in appropriate tube and transfer 5 uL compound (“cpd”) to 45 μL 1× reaction buffer with 10% DMSO. • b) The final reference cpd concentration is 10000, 3333.3, 1111.1, 370.4, 123.4, 41.2, 13.7, 4.57, 1.52, 0.51, 0.17 and 0 nM. So the 100 times of the concentration is 1000, 333.3, 111.1, 37.04, 12.34, 4.12, […], 0.15, 0.05, 0.017 and 0 μM. The final test cpds concentration is 3333.3, 1111.1, 370.4, 123.4, 41.2, 13.7, 4.57, 1.52, 0.51, 0.17, 0.057 and 0 nM. So the 100 times of the concentration is 333.3, 111.1, 37.04, 12.34, 4.12, […], 0.15, 0.05, 0.017, 0.0057 and 0 μM • c) Add 8 μL/well each dose enzyme to 384 well microplate (ProxiPlate-384 F Plus, 6008260) using multichannel pipette, prepared in step 2.1.1.2 • d) Centrifuge at 1000 rpm. • e) Add 2 μL/well cpd to 384 well microplate (ProxiPlate-384 F Plus, 6008260) using multichannel pipette, prepared in step a). • f) Centrifuge at 1000 rpm. RT, 15 min. • g) Start the assay by adding 10 uL/well substrate (prepared in step 2.1.1.3) to the same 384 well microplate using multichannel pipette • h) Centrifuge at 1000 rpm. • i) Cover the assay plate and incubate for 60 min at 25° C. • j) Read on Envision 2104 for mP and plot the IC50s with mP values. • k) Data analysis: IC50s were determined based on a non-linear regression analysis of data collected.

cIAP1-BIR3 = target: T2, cIAP1-BIR3 (Homo sapiens, UniProt Q13490); test: cIAP1-BIR3 fluorescence polarization binding assay
T2 construct: cIAP1-BIR3; Reaction Biology; APT-11-370; purchased Reaction Biology APT-11-370
Excerpt: as §1, §2

cIAP2-BIR3 = target: T3, cIAP2-BIR3 (Homo sapiens, UniProt Q13489); test: cIAP2-BIR3 fluorescence polarization binding assay
T3 construct: cIAP2-BIR3; Reaction Biology; APT-11-372; purchased Reaction Biology APT-11-372
Excerpt: as §1, §2

T3 sequence (Q13489 238-349 limits assumed): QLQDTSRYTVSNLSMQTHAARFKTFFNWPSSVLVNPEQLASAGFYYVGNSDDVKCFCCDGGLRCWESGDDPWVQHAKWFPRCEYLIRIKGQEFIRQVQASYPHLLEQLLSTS
T2 sequence (Q13490 253-363 limits assumed): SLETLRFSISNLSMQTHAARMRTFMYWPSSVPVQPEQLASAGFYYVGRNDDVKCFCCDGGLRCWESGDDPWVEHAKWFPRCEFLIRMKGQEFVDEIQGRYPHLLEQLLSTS
T1 sequence (P98170 241-356 limits assumed): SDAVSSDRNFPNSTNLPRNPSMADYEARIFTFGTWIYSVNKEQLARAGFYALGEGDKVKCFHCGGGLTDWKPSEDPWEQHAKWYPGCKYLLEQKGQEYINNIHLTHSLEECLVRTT

| SMILES | IC50 (XIAP-BIR3) | IC50 (cIAP1-BIR3) | IC50 (cIAP2-BIR3) |
| --- | --- | --- | --- |
| CN[C@@H](C)C(=O)N[C@H](C(=O)N1CCC[C@H]1C(=O)N[C@@H]1CCCc2c1cccc2N1CCN(c2cccc3c2CCC[C@H]3NC(=O)[C@@H]2CCCN2C(=O)[C@@H](NC(=O)[C@H](C)NC)C2CCCCC2)CC1)C1CCCCC1 [Compound I, (2S)-1-[(2S)-2-Cyclohexyl-2-[(2S)-2-(methylamino)propanamido]acetyl]-N-[(1R)-5-[4-[(5R)-5-[(2S)-1-[(2S)-2-cyclohexyl-2-[(2S)-2-(methylamino)propanamido]acetyl]pyrrolidine-2-amido]-5,6,7,8-tetrahydronaphthalen-1-yl]piperazin-1-yl]-1,2,3,4-tetrahydronaphthalen-1-yl]pyrrolidine-2-carboxamide] | 10 to 100 nM | 0.1 to 10 nM | 10 to 100 nM |
| CC[C@H](NC(=O)[C@H](C)NC)C(=O)N1C[C@@H](OCCCN2CCN(CCCO[C@H]3C[C@@H](C(=O)N[C@@H]4CCCc5ccccc54)N(C(=O)[C@H](CC)NC(=O)[C@H](C)NC)C3)CC2)C[C@H]1C(=O)N[C@@H]1CCCc2ccccc21 [Compound II-B, (2S,4S)-1-[(2S)-2-[(2S)-2-(Methylamino)propanamido]butanoyl]-4-{3-[4-(3-{[(3S,5S)-1-[(2S)-2-[(2S)-2-(methylamino)propanamido]butanoyl]-5-{[(1R)-1,2,3,4-tetrahydronaphthalen-1-yl]carbamoyl}pyrrolidin-3-yl]oxy}propyl)piperazin-1-yl]propoxy}-N-[(1R)-1,2,3,4-tetrahydronaphthalen-1-yl]pyrrolidine-2-carboxamide] | 10 to 100 nM | 0.1 to 10 nM | 0.1 to 10 nM |
| CN[C@@H](C)C(=O)N[C@H](C(=O)N1CCC[C@H]1C(=O)N[C@@H]1CCCc2c1cccc2N1CCN(c2cccc3c2CCC[C@H]3NC(=O)[C@@H]2CCCN2C(=O)[C@@H](NC(=O)[C@H](C)NC)C(C)(C)C)CC1)C(C)(C)C [Compound I-A, (2S,2′S,29S,34S)—N, N′-((1R,1′R)-5,5′-(Piperazine-1,4-diyl)bis(1,2,3,4-tetrahydronaphthalene-5,1-diyl))bis(1-((S)-3,3-dimethyl-2-((S)-2-(methylamino)propanamido)butanoyl)pyrrolidine-2-carboxamide)] | 100 to 1000 nM | 0.1 to 10 nM | 10 to 100 nM |
| CN[C@@H](C)C(=O)N[C@H](C(=O)N1C[C@@H](OCCCN2CCN(CCCO[C@H]3C[C@@H](C(=O)N[C@@H]4CCCc5ccccc54)N(C(=O)[C@@H](NC(=O)[C@H](C)NC)C4CCCCC4)C3)CC2)C[C@H]1C(=O)N[C@@H]1CCCc2ccccc21)C1CCCCC1 [Compound II, (2S,4S)-1-[(2S)-2-Cyclohexyl-2-[(2S)-2-(methylamino)propanamido]acetyl]-4-[3-[4-(3-[[(3S,5S)-1-[(2S)-2-cyclohexyl-2-[(2S)-2-(methylamino)propanamido]acetyl]-5-[[(1R)-1,2,3,4-tetrahydronaphthalen-1-yl]carbamoyl]pyrrolidin-3-yl]oxy]propyl)piperazin-1-yl]propoxy]-N-[(1R)-1,2,3,4-tetrahydronaphthalen-1-yl]pyrrolidine-2-carboxamide] | 10 to 100 nM | 0.1 to 10 nM | 10 to 100 nM |
| CN[C@@H](C)C(=O)N[C@@H](C)C(=O)N1C[C@@H](OCCCN2CCN(CCCO[C@H]3C[C@@H](C(=O)N[C@@H]4CCCc5ccccc54)N(C(=O)[C@H](C)NC(=O)[C@H](C)NC)C3)CC2)C[C@H]1C(=O)N[C@@H]1CCCc2ccccc21 [Compound II-A, (2S,4S)-1-[(2S)-2-[(2S)-2-(Methylamino)propanamido]propanoyl]-4-{3-[4-(3-{[(3S,5S)-1-[(2S)-2-[(2S)-2-(methylamino)propanamido]propanoyl]-5-{[(1R)-1,2,3,4-tetrahydronaphthalen-1-yl]carbamoyl}pyrrolidin-3-yl]oxy}propyl)piperazin-1-yl]propoxy}-N-[(1R)-1,2,3,4-tetrahydronaphthalen-1-yl]pyrrolidine-2-carboxamide] | 100 to 1000 nM | 0.1 to 10 nM | 10 to 100 nM |
| CN[C@@H](C)C(=O)N[C@H](C(=O)N1C[C@@H](OCCCN2CCN(CCCO[C@H]3C[C@@H](C(=O)N[C@@H]4CCCc5ccccc54)N(C(=O)[C@@H](NC(=O)[C@H](C)NC)C(C)(C)C)C3)CC2)C[C@H]1C(=O)N[C@@H]1CCCc2ccccc21)C(C)(C)C [Compound II-D, (2S,4S)-1-[(2S)-3,3-Dimethyl-2-[(2S)-2-(methylamino)propanamido]butanoyl]-4-[3-[4-(3-[[(3S,5S)-1-[(2S)-3,3-dimethyl-2-[(2S)-2-(methylamino)propanamido]butanoyl]-5-[[(1R)-1,2,3,4-tetrahydronaphthalen-1-yl]carbamoyl]pyrrolidin-3-yl]oxy]propyl)piperazin-1-yl]propoxy]-N-[(1R)-1,2,3,4-tetrahydronaphthalen-1-yl]pyrrolidine-2-carboxamide] | 10 to 100 nM | 0.1 to 10 nM | 10 to 100 nM |
| CN[C@@H](C)C(=O)N[C@H](C(=O)N1C[C@@H](OCCOCCO[C@H]2C[C@@H](C(=O)N[C@@H]3CCCc4ccccc43)N(C(=O)[C@@H](NC(=O)[C@H](C)NC)C3CCCCC3)C2)C[C@H]1C(=O)N[C@@H]1CCCc2ccccc21)C1CCCCC1 [Compound V, (2S,4S)-1-[(2S)-2-Cyclohexyl-2-[(2S)-2-(methylamino)propanamido]acetyl]-4-[2-(2-[[(3S,5S)-1-[(2S)-2-cyclohexyl-2-[(2S)-2-(methylamino)propanamido]acetyl]-5-[[(1R)-1,2,3,4-tetrahydronaphthalen-1-yl]carbamoyl]pyrrolidin-3-yl]oxy]ethoxy)ethoxy]-N-[(1R)-1,2,3,4-tetrahydronaphthalen-1-yl] pyrrolidine-2-carboxamide] | 10 to 100 nM | 0.1 to 10 nM | 0.1 to 10 nM |
| CC[C@H](NC(=O)[C@H](C)NC)C(=O)N1C[C@@H](OCCC(=O)N2CCN(C(=O)CCO[C@H]3C[C@@H](C(=O)N[C@@H]4CCCc5ccccc54)N(C(=O)[C@H](CC)NC(=O)[C@H](C)NC)C3)CC2)C[C@H]1C(=O)N[C@@H]1CCCc2ccccc21 [Compound IV-B, (2S, 4S)-1-[(2S)-2-[(2S)-2-(Methylamino)propanamido]butanoyl]-4-[3-[4-(3-[[(3S,5S)-1-[(2S)-2-[(2S)-2-(methylamino)propanamido]butanoyl]-5-[[(1R)-1,2,3,4-tetrahydronaphthalen-1-yl]carbamoyl]pyrrolidin-3-yl]oxy]propanoyl)piperazin-1-yl]-3-oxopropoxy]-N-[(1R)-1,2,3,4-tetrahydronaphthalen-1-yl]pyrrolidine-2-carboxamide] | 100 to 1000 nM | 0.1 to 10 nM | 10 to 100 nM |
| CN[C@@H](C)C(=O)N[C@H](C(=O)N1C[C@@H](OCCCN2CCN(CCCO[C@H]3C[C@@H](C(=O)N[C@@H]4CCCc5ccccc54)N(C(=O)[C@@H](NC(=O)[C@H](C)NC)C4CC4)C3)CC2)C[C@H]1C(=O)N[C@@H]1CCCc2ccccc21)C1CC1 [Compound II-F, (2S,4S)-1-[(2S)-2-Cyclopropyl-2-[(2S)-2-(methylamino)propanamido]acetyl]-4-[3-[4-(3-[[(3S,5S)-1-[(2S)-2-cyclopropyl-2-[(2S)-2-(methylamino)propanamido]acetyl]-5-[[(1R)-1,2,3,4-tetrahydronaphthalen-1-yl]carbamoyl]pyrrolidin-3-yl]oxy]propyl)piperazin-1-yl]propoxy]-N-[(1R)-1,2,3,4-tetrahydronaphthalen-1-yl]pyrrolidine-2-carboxamide] | 100 to 1000 nM | 0.1 to 10 nM | 10 to 100 nM |
